Experimental data as given in PubChem BioAssay (NCI).
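48-hour exposure; five concentrations; linearly interpolated endpoints. GI50 marks 50% less growth. TGI marks complete inhibition of growth.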

Columns and labels:
Test in all cases: NCI tumour cell line growth inhibition, 48 h
HT29 colon = system: HT29 colon
RXF 393 renal = system: RXF 393 renal
K-562 leukemia = system: K-562 leukemia
A498 renal = system: A498 renal
TK-10 renal = system: TK-10 renal
SR leukemia = system: SR leukemia
OVCAR-8 ovarian = system: OVCAR-8 ovarian
DU-145 prostate = system: DU-145 prostate
MDA-MB-435 = system: MDA-MB-435
MCF7 breast = system: MCF7 breast

## O=C(/C=C/c1ccccc1F)c1ccc(Cl)c(Cl)c1
HT29 colon
  TGI: > 75.2 µM
RXF 393 renal
  TGI: 62.4 µM
K-562 leukemia
  TGI: 48.4 µM
A498 renal
  TGI: > 59.3 µM
TK-10 renal
  TGI: > 100 µM
SR leukemia
  TGI: > 100 µM
OVCAR-8 ovarian
  TGI: > 100 µM

## CC(=O)c1c2c(cc3c1CC1(C3)Cc3cc4c(c(C(C)=O)c3C1)CCC4)CCC2
HT29 colon
  TGI: > 100 µM
RXF 393 renal
  TGI: > 100 µM
K-562 leukemia
  TGI: > 100 µM
TK-10 renal
  TGI: > 100 µM
SR leukemia
  TGI: > 100 µM
OVCAR-8 ovarian
  TGI: > 100 µM

## N#C/C(=C/c1ccc2c(c1)OCO2)C(=O)c1ccccc1
HT29 colon
  TGI: > 100 µM
K-562 leukemia
  TGI: > 100 µM
A498 renal
  TGI: > 100 µM
TK-10 renal
  TGI: > 100 µM
OVCAR-8 ovarian
  TGI: > 100 µM

## N/C(=N\N=C\c1ccc(C(F)(F)F)cc1)NO
HT29 colon
  TGI: > 100 µM
RXF 393 renal
  TGI: > 100 µM
K-562 leukemia
  TGI: > 100 µM
A498 renal
  TGI: > 100 µM
TK-10 renal
  TGI: > 100 µM
SR leukemia
  TGI: > 100 µM
OVCAR-8 ovarian
  TGI: 41.2 µM

## CCc1cccc(C)c1NC(=O)C(=O)CC(=O)c1ccc(Cl)s1
HT29 colon
  TGI: > 100 µM
K-562 leukemia
  TGI: > 100 µM
A498 renal
  TGI: > 100 µM
TK-10 renal
  TGI: > 100 µM
SR leukemia
  TGI: > 100 µM
OVCAR-8 ovarian
  TGI: > 100 µM

## COC12C=C/C(=C(/C(=O)OCc3ccccn3)C(=O)CCCCCCCCC3(OC)C=C/C(=C(/C(=O)OCc4ccccn4)C(=O)CCCCCCCC1)O3)O2
DU-145 prostate
  GI50: 564 nM
  TGI: 1.87 µM
HT29 colon
  GI50: 423 nM
  TGI: 2.89 µM
RXF 393 renal
  GI50: 192 nM
  TGI: 0.357 µM
K-562 leukemia
  GI50: 331 nM
  TGI: > 100 µM
MDA-MB-435
  GI50: 209 nM
  TGI: 480 nM
A498 renal
  GI50: 1060 nM
  TGI: 2.29 µM
TK-10 renal
  GI50: 1.69 µM
  TGI: 4.19 µM
SR leukemia
  GI50: 364 nM
  TGI: > 100 µM
OVCAR-8 ovarian
  GI50: 406 nM
  TGI: > 100 µM

## CCCCCCCCCCCCCC[N+](C)(C)CCCCCCCCCCCCCC
DU-145 prostate
  GI50: 3420 nM
  TGI: 12.5 µM
RXF 393 renal
  GI50: 1280 nM
  TGI: 2.78 µM
K-562 leukemia
  GI50: 2890 nM
  TGI: 9.8 µM
A498 renal
  GI50: 5070 nM
  TGI: 28 µM
TK-10 renal
  GI50: 2.53 µM
  TGI: 7.03 µM
SR leukemia
  GI50: 2460 nM
  TGI: 9.96 µM

## COC(=O)N/N=C(\C)c1c(O)cc(C)oc1=O
HT29 colon
  TGI: > 100 µM
K-562 leukemia
  TGI: 97.7 µM
A498 renal
  TGI: > 100 µM
TK-10 renal
  TGI: > 100 µM
SR leukemia
  TGI: > 100 µM
OVCAR-8 ovarian
  TGI: > 100 µM

## c1ccc(C2OC3(CCC[C@H]4C[C@H]43)O[C@H]2c2ccccc2)cc1 (stereo partly specified)
HT29 colon
  TGI: > 100 µM
RXF 393 renal
  TGI: 79 µM
K-562 leukemia
  TGI: > 100 µM
A498 renal
  TGI: > 100 µM
TK-10 renal
  TGI: > 100 µM
SR leukemia
  TGI: 54.2 µM
OVCAR-8 ovarian
  TGI: > 100 µM

## COc1ccc2c(c1OC)CO[C@@H]2[C@H]1c2c(cc3c(c2OC)OCO3)CCN1S(=O)(=O)c1cn(C)cn1
DU-145 prostate
  GI50: 2770 nM
  TGI: 12 µM
HT29 colon
  GI50: 614 nM
  TGI: > 100 µM
K-562 leukemia
  GI50: 413 nM
  TGI: > 100 µM
A498 renal
  GI50: 588 nM
  TGI: 9.75 µM
MCF7 breast
  GI50: 407 nM
  TGI: > 100 µM
TK-10 renal
  GI50: > 100 µM
  TGI: > 100 µM
SR leukemia
  GI50: 902 nM
  TGI: > 100 µM
OVCAR-8 ovarian
  GI50: 3240 nM
  TGI: > 100 µM

## CC(=O)[O-].Cn1ccnc1CNCc1nccn1C.[Cu+2].[O-][Cl+3]([O-])([O-])[O-]
HT29 colon
  GI50: > 100000 nM
  TGI: > 100 µM
RXF 393 renal
  GI50: > 100000 nM
  TGI: > 100 µM
K-562 leukemia
  GI50: > 100000 nM
  TGI: > 100 µM
TK-10 renal
  GI50: > 100 µM
  TGI: > 100 µM
OVCAR-8 ovarian
  GI50: > 100000 nM
  TGI: > 100 µM

## CC1=C(/C=C/C(C)=C/C2CC(N(C)C)=CC(=O)O2)C(C)(C)CCC1 (stereo unspecified)
HT29 colon
  TGI: 27.9 µM
RXF 393 renal
  TGI: 31.1 µM
K-562 leukemia
  TGI: 19.9 µM
A498 renal
  TGI: 29.2 µM
TK-10 renal
  TGI: 27.5 µM
SR leukemia
  TGI: 28.7 µM
OVCAR-8 ovarian
  TGI: 32.3 µM

## COc1ccc2c(c1)[nH]c(=O)c1c3cccc(F)c3cn21
DU-145 prostate
  GI50: 69.6 nM
  TGI: > 100 µM
HT29 colon
  GI50: 30.6 nM
RXF 393 renal
  GI50: 37.5 nM
  TGI: 34.1 µM
K-562 leukemia
  GI50: 24 nM
  TGI: 12.3 µM
A498 renal
  GI50: 62.5 nM
  TGI: > 100 µM
MCF7 breast
  GI50: 220 nM
  TGI: > 94.6 µM
TK-10 renal
  GI50: 9.55 µM
  TGI: > 100 µM
SR leukemia
  GI50: 24.7 nM
  TGI: 0.594 µM
OVCAR-8 ovarian
  GI50: 129 nM
  TGI: > 73.3 µM

## O=C1C(c2ccc(Br)cc2)=[N+]([O-])c2ccccc21
HT29 colon
  TGI: 43.8 µM
RXF 393 renal
  TGI: 31.4 µM
K-562 leukemia
  TGI: 33.5 µM
A498 renal
  TGI: 56.1 µM
TK-10 renal
  TGI: 29.7 µM
OVCAR-8 ovarian
  TGI: 25.1 µM

## Cc1cc2c(C)n(Cc3ccccc3Cl)nc2c(C(=O)O)c1C
HT29 colon
  TGI: > 100 µM
RXF 393 renal
  TGI: > 100 µM
TK-10 renal
  TGI: > 100 µM
SR leukemia
  TGI: > 100 µM
OVCAR-8 ovarian
  TGI: > 100 µM

## O=[N+]([O-])C(/C=N/Nc1ccccc1)/C=N/Nc1ccccc1
HT29 colon
  TGI: > 100 µM
RXF 393 renal
  TGI: > 100 µM
K-562 leukemia
  TGI: > 100 µM
A498 renal
  TGI: > 100 µM
TK-10 renal
  TGI: > 100 µM
OVCAR-8 ovarian
  TGI: > 100 µM

## O=C1/C=C(/c2ccc(O)cc2)[C@@H](O)Cc2ccc(O)cc2O1
HT29 colon
  TGI: > 100 µM
A498 renal
  TGI: 86.4 µM
TK-10 renal
  TGI: > 100 µM
SR leukemia
  TGI: > 100 µM
OVCAR-8 ovarian
  TGI: > 100 µM
